Experiments:
Assay in all cases: Test B pre-/postemergence plant response
Format in all cases: in vivo
corn (Zea mays) = settings: for Corn plant response rating: 8 g ai/ha
How it was run: (§1)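 Seeds were sown and sprayed preemergence, while plants at 2 to 18 cm (1- to 4-leaf stage) got postemergence sprays. Compounds were formulated in a non-phytotoxic solvent mixture with surfactant. After 13 to 15 days in a greenhouse, injury was rated visually against untreated controls, 0 (no effect) to 100 (complete control).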

[1] = test system: green foxtail (Setaria viridis); settings: for Foxtail, Green plant response rating: 8 g ai/ha
How it was run: as §1

[2] = test system: wheat (Triticum aestivum); settings: for Wheat plant response rating: 8 g ai/ha
How it was run: as §1

[3] = test system: Russian thistle (Salsola iberica); settings: Preemergence
How it was run: as §1

[4] = test system: velvetleaf (Abutilon theophrasti); settings: for Velvetleaf plant response rating: 8 g ai/ha
How it was run: as §1

[5] = test system: bermudagrass (Cynodon dactylon); settings: for Bermudagrass plant response rating: 8 g ai/ha
How it was run: as §1

[6] = test system: lambsquarters (Chenopodium album); settings: for Lambsquarters plant response rating: 8 g ai/ha
How it was run: as §1

[7] = test system: cocklebur (Xanthium strumarium); settings: for Cocklebur plant response rating: 8 g ai/ha
How it was run: as §1

[8] = test system: giant foxtail (Setaria faberii); settings: for Foxtail, Giant plant response rating: 8 g ai/ha
How it was run: as §1

kochia (Kochia scoparia) = settings: for Kochia plant response rating: 8 g ai/ha
How it was run: as §1

soybean (Glycine max) = settings: for Soybean plant response rating: 8 g ai/ha
How it was run: as §1

[9] = test system: goosegrass (Eleusine indica); settings: for Goosegrass plant response rating: 8 g ai/ha
How it was run: as §1

[10] = test system: yellow nutsedge (Cyperus esculentus); settings: for Nutsedge, Yellow plant response rating: 8 g ai/ha
How it was run: as §1

[11] = test system: woolly cupgrass (Eriochloa villosa); settings: for Cupgrass, Woolly plant response rating: 8 g ai/ha
How it was run: as §1

[12] = Postemergence, 16 g ai/ha, scale 0 to 100
[13] = Postemergence, 31 g ai/ha, scale 0 to 100, 0 no effect, 100 complete control
[14] = Preemergence, 16 g ai/ha, scale 0 to 100 (0 no effect, 100 complete control)
[15] = Preemergence, 31 g ai/ha, 0 to 100 scale, 0 no effect, 100 complete control
[16] = Preemergence, 62 g ai/ha, scale 0 to 100
[17] = Postemergence, 62 g ai/ha, scale 0 to 100

Q: For `CCc1cc(-c2ccc(F)cc2)nn1-c1c(O)cnn(C)c1=O` [Compound 25], which “Corn plant response rating” value (corn (Zea mays); postemergence, 0-100 scale) is on record?
A: 0

Q: And the “Plant response rating, Corn” value (corn (Zea mays); [12])?
A: 50

Q: What about the “Plant response rating, Corn” value (corn (Zea mays); [13]) of the same compound?
A: 95

Q: And the “Plant response rating, Corn” value (corn (Zea mays); [14])?
A: 5

Q: What about the “Plant response rating, Corn” value (corn (Zea mays); [15]) of the same compound?
A: 50

Q: What about the “Plant response rating, Corn” value (corn (Zea mays); [16]) of the same compound?
A: 75

Q: And the “Corn plant response rating” value (corn (Zea mays); Preemergence, scale 0 to 100)?
A: 0

Q: What about the “Foxtail, Green plant response rating” value ([1]; postemergence, 0-100 scale) of the same compound?
A: 55

Q: What about the “Plant response rating, Foxtail, Green” value [1, 12] of the same compound?
A: 70

Q: What about the “Plant response rating, Foxtail, Green” value [1, 13] of the same compound?
A: 80

Q: And the “Plant response rating, Foxtail, Green” value [1, 17]?
A: 98

Q: And the “Plant response rating, Foxtail, Green” value [1, 14]?
A: 98

Q: What about the “Plant response rating, Foxtail, Green” value [1, 15] of the same compound?
A: 98

Q: And the “Plant response rating, Foxtail, Green” value [1, 16]?
A: 98

Q: And the “Foxtail, Green plant response rating” value ([1]; Preemergence, scale 0 to 100)?
A: 50

Q: And the “Wheat plant response rating” value ([2]; postemergence, 0-100 scale)?
A: 0

Q: And the “Plant response rating, Wheat” value [2, 12]?
A: 0

Q: And the “Plant response rating, Wheat” value [2, 13]?
A: 0

Q: What about the “Plant response rating, Wheat” value [2, 17] of the same compound?
A: 0

Q: What about the “Plant response rating, Wheat” value [2, 14] of the same compound?
A: 0

Q: What about the “Plant response rating, Wheat” value [2, 15] of the same compound?
A: 0

Q: And the “Plant response rating, Wheat” value [2, 16]?
A: 15

Q: And the “Wheat plant response rating” value ([2]; Preemergence, scale 0 to 100)?
A: 0

Q: What about the “Plant response rating, Russian Thistle” value ([3]; 16 g ai/ha, scale 0 to 100 (0 no effect, 100 complete control)) of the same compound?
A: 0

Q: And the “Plant response rating, Russian Thistle” value ([3]; 31 g ai/ha, 0 to 100 scale, 0 no effect, 100 complete control)?
A: 0

Q: And the “Plant response rating, Russian Thistle” value ([3]; 62 g ai/ha, scale 0 to 100)?
A: 0

Q: And the “Russian Thistle plant response rating” value ([3]; 8 g ai/ha, scale 0 to 100)?
A: 0

Q: What about the “Velvetleaf plant response rating” value ([4]; postemergence, 0-100 scale) of the same compound?
A: 0

Q: And the “Plant response rating, Velvetleaf” value [4, 12]?
A: 0

Q: What about the “Plant response rating, Velvetleaf” value [4, 13] of the same compound?
A: 0

Q: What about the “Plant response rating, Velvetleaf” value [4, 17] of the same compound?
A: 0

Q: What about the “Plant response rating, Velvetleaf” value [4, 14] of the same compound?
A: 0

Q: What about the “Plant response rating, Velvetleaf” value [4, 15] of the same compound?
A: 0

Q: And the “Plant response rating, Velvetleaf” value [4, 16]?
A: 0

Q: And the “Velvetleaf plant response rating” value ([4]; Preemergence, scale 0 to 100)?
A: 0

Q: And the “Bermudagrass plant response rating” value ([5]; postemergence, 0-100 scale)?
A: 0

Q: And the “Plant response rating, Bermudagrass” value [5, 12]?
A: 0

Q: What about the “Plant response rating, Bermudagrass” value [5, 13] of the same compound?
A: 60

Q: What about the “Plant response rating, Bermudagrass” value [5, 17] of the same compound?
A: 60

Q: And the “Bermudagrass plant response rating” value ([5]; Preemergence, scale 0 to 100 (0 no effect, 100 complete control))?
A: 0

Q: And the “Plant response rating, Bermudagrass” value [5, 14]?
A: 70

Q: And the “Plant response rating, Bermudagrass” value [5, 15]?
A: 80

Q: And the “Plant response rating, Bermudagrass” value [5, 16]?
A: 100

Q: What about the “Lambsquarters plant response rating” value ([6]; postemergence, 0-100 scale) of the same compound?
A: 0

Q: What about the “Plant response rating, Lambsquarters” value [6, 12] of the same compound?
A: 0

Q: And the “Plant response rating, Lambsquarters” value [6, 13]?
A: 0

Q: And the “Plant response rating, Lambsquarters” value [6, 17]?
A: 10

Q: And the “Plant response rating, Lambsquarters” value [6, 14]?
A: 0

Q: And the “Plant response rating, Lambsquarters” value [6, 15]?
A: 0

Q: And the “Plant response rating, Lambsquarters” value [6, 16]?
A: 40

Q: And the “Lambsquarters plant response rating” value ([6]; Preemergence, scale 0 to 100)?
A: 0

Q: And the “Cocklebur plant response rating” value ([7]; postemergence, 0-100 scale)?
A: 0

Q: And the “Plant response rating, Cocklebur” value [7, 12]?
A: 0

Q: What about the “Plant response rating, Cocklebur” value [7, 13] of the same compound?
A: 0

Q: And the “Plant response rating, Cocklebur” value [7, 17]?
A: 0

Q: And the “Plant response rating, Cocklebur” value [7, 14]?
A: 0

Q: And the “Plant response rating, Cocklebur” value [7, 15]?
A: 0

Q: And the “Plant response rating, Cocklebur” value [7, 16]?
A: 0

Q: What about the “Cocklebur plant response rating” value ([7]; Preemergence, scale 0 to 100) of the same compound?
A: 0

Q: And the “Foxtail, Giant plant response rating” value ([8]; postemergence, 0-100 scale)?
A: 70

Q: And the “Plant response rating, Foxtail, Giant” value [8, 12]?
A: 85

Q: What about the “Plant response rating, Foxtail, Giant” value [8, 13] of the same compound?
A: 85

Q: What about the “Plant response rating, Foxtail, Giant” value [8, 17] of the same compound?
A: 95

Q: And the “Plant response rating, Foxtail, Giant” value [8, 14]?
A: 60

Q: And the “Plant response rating, Foxtail, Giant” value [8, 15]?
A: 90

Q: And the “Plant response rating, Foxtail, Giant” value [8, 16]?
A: 100

Q: And the “Foxtail, Giant plant response rating” value ([8]; Preemergence, scale 0 to 100)?
A: 50

Q: What about the “Kochia plant response rating” value (kochia (Kochia scoparia); postemergence, 0-100 scale) of the same compound?
A: 0

Q: And the “Plant response rating, Kochia” value (kochia (Kochia scoparia); [12])?
A: 0

Q: And the “Plant response rating, Kochia” value (kochia (Kochia scoparia); [13])?
A: 0

Q: What about the “Plant response rating, Kochia” value (kochia (Kochia scoparia); [17]) of the same compound?
A: 0

Q: What about the “Plant response rating, Kochia” value (kochia (Kochia scoparia); [14]) of the same compound?
A: 0

Q: What about the “Plant response rating, Kochia” value (kochia (Kochia scoparia); [16]) of the same compound?
A: 50

Q: What about the “Kochia plant response rating” value (kochia (Kochia scoparia); Preemergence, scale 0 to 100) of the same compound?
A: 0

Q: What about the “Soybean plant response rating” value (soybean (Glycine max); postemergence, 0-100 scale) of the same compound?
A: 0

Q: What about the “Plant response rating, Soybean” value (soybean (Glycine max); [12]) of the same compound?
A: 0

Q: And the “Plant response rating, Soybean” value (soybean (Glycine max); [13])?
A: 0

Q: What about the “Plant response rating, Soybean” value (soybean (Glycine max); [17]) of the same compound?
A: 0

Q: And the “Plant response rating, Soybean” value (soybean (Glycine max); [14])?
A: 0

Q: What about the “Plant response rating, Soybean” value (soybean (Glycine max); [15]) of the same compound?
A: 0

Q: And the “Plant response rating, Soybean” value (soybean (Glycine max); [16])?
A: 0

Q: What about the “Soybean plant response rating” value (soybean (Glycine max); Preemergence, scale 0 to 100) of the same compound?
A: 0

Q: What about the “Goosegrass plant response rating” value ([9]; postemergence, 0-100 scale) of the same compound?
A: 0

Q: What about the “Plant response rating, Goosegrass” value [9, 12] of the same compound?
A: 0

Q: What about the “Plant response rating, Goosegrass” value [9, 13] of the same compound?
A: 0

Q: What about the “Plant response rating, Goosegrass” value [9, 17] of the same compound?
A: 50

Q: And the “Plant response rating, Goosegrass” value [9, 14]?
A: 50

Q: What about the “Plant response rating, Goosegrass” value [9, 15] of the same compound?
A: 75

Q: What about the “Plant response rating, Goosegrass” value [9, 16] of the same compound?
A: 85

Q: What about the “Goosegrass plant response rating” value ([9]; Preemergence, scale 0 to 100) of the same compound?
A: 0

Q: And the “Nutsedge, Yellow plant response rating” value ([10]; postemergence, 0-100 scale)?
A: 0

Q: What about the “Plant response rating, Nutsedge, Yellow” value [10, 12] of the same compound?
A: 0

Q: And the “Plant response rating, Nutsedge, Yellow” value [10, 13]?
A: 0

Q: What about the “Plant response rating, Nutsedge, Yellow” value [10, 17] of the same compound?
A: 0

Q: And the “Plant response rating, Nutsedge, Yellow” value [10, 14]?
A: 0

Q: What about the “Plant response rating, Nutsedge, Yellow” value [10, 15] of the same compound?
A: 0

Q: And the “Plant response rating, Nutsedge, Yellow” value [10, 16]?
A: 0

Q: And the “Nutsedge, Yellow plant response rating” value ([10]; Preemergence, scale 0 to 100)?
A: 0

Q: What about the “Cupgrass, Woolly plant response rating” value ([11]; postemergence, 0-100 scale) of the same compound?
A: 60

Q: And the “Plant response rating, Cupgrass, Woolly” value [11, 12]?
A: 80

Q: And the “Plant response rating, Cupgrass, Woolly” value [11, 13]?
A: 85

Q: And the “Plant response rating, Cupgrass, Woolly” value [11, 17]?
A: 100

Q: And the “Plant response rating, Cupgrass, Woolly” value [11, 14]?
A: 40

Q: And the “Plant response rating, Cupgrass, Woolly” value [11, 15]?
A: 80

Q: What about the “Plant response rating, Cupgrass, Woolly” value [11, 16] of the same compound?
A: 80

Q: And the “Cupgrass, Woolly plant response rating” value ([11]; Preemergence, scale 0 to 100)?
A: 0

Source: patent US20100267561A1, “HERBICIDAL PYRIDAZINONE DERIVATIVES” (priority 2007, published 2010)
